Test [1] has as its system KP-2 cells (KRAS G12R). The experiment in a line: 3D Cell viability assay in KP-2 cells (Biological Example 6). As to conditions: KP-2 (KRAS G12R) spheroids, 72 hours. In kind it is cell-based. As for the experimental part:
Biological Example 6: 3D Cell viability assay in AsPC-1, SW1900, HPAC, Capan-2, RKN, H358, HCT116, KP-2, H1573, A549, MKN1, and HT1080 cells
The inhibition of cellular viability as a result of test compound treatment in a spheroid assay was measured using the CellTiter-Glow 3D Cell Viability Assay (Promega).
On Day 1, 1000 cells per well were seeded in 150 μL of complete growth media supplemented with 10% fetal bovine serum (FBS) and incubated at 37° C., in the presence of 5% CO2 in 96-well ultra-low attachment microplates (Corning) for 48 hours undisturbed to allow spheroids to form.
Following spheroid formation, cells were treated with compounds diluted in DMSO at 0.25% final DMSO concentration. Compounds were dosed in a 9-point concentration curve with three-fold dilution between concentrations. Cells were incubated in the presence of compound for 72 hours at 37° C., in the presence of 5% CO2.
Following this incubation period, the kit-provided CTG reagent was allowed to equilibrate for 30 minutes at room temperature, 150 μL of equilibrated CTG reagent was added to each well, and the plate was sealed before shaking at 250 rpm for 10 minutes at room temperature to lyse the cells, 150 μL of lysate per well was transferred to a 96-well plate and luminescence was read on a CLARIOstar plate reader.
Data was imported into the Prism software package (Graphpad) and EC50 values were calculated using the log (inhibitor) vs, response—variable slope (Four parameters) model.

The test system of test [2] is HT1080 cells (NRAS). The experiment in a line: 3D Cell viability assay in HT1080 cells (Biological Example 6). Format: cell-based. Conditions: Homo sapiens, HT-1080; HT1080 (NRAS) spheroids, 72 hours. In outline: (§1)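 First, 1000 cells per well are seeded in complete medium with 10% FBS and left undisturbed 48 h to form spheroids. Next, compounds are added as a 9-point, three-fold series (0.25% DMSO) for 72 h at 37 °C. Finally, CellTiter-Glo 3D lysis and luminescence yield EC50 values.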

Another test relates to AsPC-1 cells (KRAS G12D). The experiment in a line: Cell-based pERK HTRF assay in AsPC-1 cells (Biological Example 5). As to conditions: Homo sapiens, ASPC1, AsPC-1 (KRAS G12D) cells. In outline:
(§2)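 Cells seeded at 2.5×10^4/well in 10% FBS medium overnight, then treated 2 h at 37 °C with a 9-point, 3-fold compound series (0.25% DMSO). Lysates read by HTRF for pERK1/2 (Thr202/Tyr204), 665/620 nm ratio; EC50 from four-parameter fit.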
For orientation: In TR-FRET formats the signal depends on donor and acceptor labels being close together.

Test [3] concerns A549 cells (KRAS G12S). The experiment in a line: 3D Cell viability assay in A549 cells (Biological Example 6). Format: cell-based. As to conditions: Homo sapiens; A549 (KRAS G12S) spheroids, 72 hours. In short, it runs like this:
as §1

Test [4] concerns HT1080 cells (NRAS). The experiment in a line: Cell-based pERK HTRF assay in HT1080 cells (Biological Example 5). As to conditions: Homo sapiens, HT-1080. In short, it runs like this:
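A two-hour compound treatment (0.25% DMSO) of cells seeded the previous day preceded lysis and HTRF phospho-ERK1/2 detection. EC50 values were fitted by variable-slope four-parameter regression.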

A further test concerns H358 cells (KRAS G12C). The experiment in a line: 3D Cell viability assay in H358 cells (Biological Example 6). In kind it is cell-based. Conditions: Homo sapiens, NCI-H358; H358 (KRAS G12C) spheroids, 72 hours. In outline: as §1
Another test relates to RKN cells (KRAS G12V). The experiment in a line: 3D Cell viability assay in RKN cells (Biological Example 6). Format: cell-based. Conditions: RKN (KRAS G12V) spheroids, 72 hours. In short, it runs like this: as §1
The test system of test [5] is Capan-2 cells (KRAS G12V). The experiment in a line: Cell-based pERK HTRF assay in Capan-2 cells (Biological Example 5). Conditions: Homo sapiens, Capan-2, Capan-2 (KRAS G12V) cells. In outline: as §2
The test system of test [6] is A549 cells (KRAS G12S). The experiment in a line: Cell-based pERK HTRF assay in A549 cells (Biological Example 5). As to conditions: Homo sapiens. In short, it runs like this:
as §2

Test [7] deals with H1573 cells (KRAS G12A). The experiment in a line: Cell-based pERK HTRF assay in H1573 cells (Biological Example 5). Conditions: Homo sapiens, NCI-H1573. In outline:
as §2

In test [8] the test system is HCT116 cells (KRAS G13D). The experiment in a line: 3D Cell viability assay in HCT116 cells (Biological Example 6). Format: cell-based. As to conditions: Homo sapiens, HCT-116; HCT116 (KRAS G13D) spheroids, 72 hours. In outline: as §1
The test system of test [9] is H1573 cells (KRAS G12A). The experiment in a line: 3D Cell viability assay in H1573 cells (Biological Example 6). In kind it is cell-based. As to conditions: Homo sapiens, NCI-H1573; H1573 (KRAS G12A) spheroids, 72 hours. In short, it runs like this: as §1
Test [10] concerns SW1900 cells (KRAS G12D). The experiment in a line: Cell-based pERK HTRF assay in SW1900 cells (Biological Example 5). As to conditions: Homo sapiens, SW1990, SW1990 cells (text: SW1900, KRAS G12D). In outline:
as §2

For test [11], the system named is SW1900 cells (KRAS G12D). The experiment in a line: 3D Cell viability assay in SW1900 cells (Biological Example 6). Conditions: Homo sapiens; SW1990 (text: SW1900, KRAS G12D) spheroids, 72 hours. Format: cell-based. In outline:
as §1

Test [12] concerns MKN1 cells (KRAS amplification). The experiment in a line: 3D Cell viability assay in MKN1 cells (Biological Example 6). Format: cell-based. Conditions: Homo sapiens, MKN-1; MKN (MKN1, KRAS amplification) spheroids, 72 hours. In outline:
as §1

In test [13] the test system is Capan-2 cells (KRAS G12V). The experiment in a line: 3D Cell viability assay in Capan-2 cells (Biological Example 6). In kind it is cell-based. Conditions: Homo sapiens; Capan-2 (KRAS G12V) spheroids, 72 hours. In short, it runs like this:
as §1

Test [14] concerns HCT116 cells (KRAS G13D). The experiment in a line: Cell-based pERK HTRF assay in HCT116 cells (Biological Example 5). As to conditions: Homo sapiens, HCT-116. In outline:
as §2

For test [15], the system named is KP-2 cells (KRAS G12R). The experiment in a line: Cell-based pERK HTRF assay in KP-2 cells (Biological Example 5). As to conditions: KP-2 (KRAS G12R) cells. As for the experimental part:
Biological Example 5: Cell-based PERK HTRF assay in AsPC-1, SW1900, HPAC, Capan-2, RKN, H358, HCT116, KP-2, H1573, A549, MKN1, and HT1080 cells
The inhibition of ERK phosphorylation, as measured using the HTRF Advanced Phospho-ERK 1/2 (Thr202/Tyr204) Detection Assay kit (Perkin Elmer), was used to determine the effectiveness of test compounds in disrupting KRAS-driven protein/effector signaling in cells.
On day 1, cells were seeded into 96-well plates at 2.5×10^4 cells/well in 100 μL of complete growth media supplemented with 10% fetal bovine serum (FBS) and incubated at 37° C., in the presence of 5% CO2.
On day 2, cells were treated with compounds diluted in DMSO at 0.25% final DMSO concentration. Compounds were dosed in a 9-point concentration curve with three-fold dilution between concentrations. Cells were incubated in the presence of compound for two hours at 37° C. Following this treatment period, cells were harvested by aspirating the media, adding 40 μL of kit-supplied 1x lysis buffer per well, and shaking for 30 minutes at 250 rpm at room temperature.
Following cell lysis, samples were homogenized by pipetting up and down twenty times and 16 μL of cell lysate per well was transferred from the 96-well cell culture plate to two wells of a 384-well detection plate. A complete detection buffer was prepared by diluting D2 and Eu Cryptate antibodies 1:20 in kit-provided detection solution, 4 μL of complete detection buffer was then added to each well with lysate. Plates were incubated with gentle rocking for 24 hours at 4° C.
Following this incubation period, plates were centrifuged at 500×g for one minute and analyzed on a CLARIOstar plate reader. Data was imported into Microsoft Excel and the signal from the 665 nm channel was divided by the signal from the 620 nm channel. % pERK was calculated as: […]
Data was imported to the Prism software package (Graphpad) and EC50 values were calculated using the log (inhibitor) vs, response—variable slopc (Four parameters) model.

pIC50: −log10 of the molar value.

From patent US20260042764A1, “COMPOSITIONS AND METHODS FOR INHIBITION OF KRAS” (TheRas, Inc., priority 2022, published 2026) come the findings set out here.

A word on the pIC50: it is −log10 of the IC50, conventionally taken in molar units. Low readings indicate a high IC50, high ones a low IC50.

On to `CCN(c1nc(OC[C@@]23CCCN2C[C@H](F)C3)nc2c(F)c(-c3ccc(F)c4sc(N)c(C#N)c34)c(C(F)(F)F)cc12)[C@H]1CCN(C(C)=O)C1` [Compound 262], for which the pIC50 was 6.00 to 7.00 in the test with KP-2 cells (KRAS G12R) [1]; under 6.00 in the test on HT1080 cells (NRAS) [2]; 6.00 to 7.00 in the test on AsPC-1 cells (KRAS G12D); at least 7.00 in the test on A549 cells (KRAS G12S) [3]; under 6.00 with HT1080 cells (NRAS) [4]; at least 7.00 in the test with H358 cells (KRAS G12C). Besides, the pIC50 in the test with RKN cells (KRAS G12V) was at least 7.00; in [5] it was at least 7.00; in the test on A549 cells (KRAS G12S) [6], at least 7.00; in the test on H1573 cells (KRAS G12A) [7] it was at least 7.00; in the test with HCT116 cells (KRAS G13D) [8], 6.00 to 7.00; in the test with H1573 cells (KRAS G12A) [9], at least 7.00. In addition, the pIC50 (in the test on SW1900 cells (KRAS G12D) [10]; in the test on SW1900 cells (KRAS G12D) [11]; in test [12]; in test [13]; with HCT116 cells (KRAS G13D) [14]; in the test with KP-2 cells (KRAS G12R) [15]) was at least 7.00 throughout.
